Earlier results in patent US9532968B1, “Fumarate compounds, pharmaceutical compositions thereof, and methods of use” (priority 2015, dated 2017).

aqueous solubility: poor
SMILES: COC(=O)/C=C/C(=O)OC [DMF, dimethylfumarate]
